# Test results from US10807958B2, “1,4-bis(3-aminopropyl)piperazine derivative and its use” (INSERM (Institut National de la Sante et de la Recherche …, priority 2015, dated 2020).
# Tests used:
# [1] = tested on: Tau proteins of Thy-Tau22 animals (hippocampus); test: 1D SDS-PAGE and Western-blot of Tau expression, catabolites and phosphorylation in hippocampus; assay type: in vivo, mouse; conditions: treated vs untreated, FIG. 6
# Excerpt: Wild-type C57BL/6J animals of 3 months were purchased at Charles Rivers Laboratories (France) and were allow to acclimate in the animal facility for at least one week before any treatment. Thy-Tau22 transgenic colonies (C57BL/6J genetic background) were obtained by crossing heterozygous Thy-Tau22 males with C57BL/6 WT females. […] In this model, a progressive development of NFT is observed in the hippocampus and amygdala, which parallels behavioral impairments (Schindowski et al., 2006). Furthermorever, in the hippocampus, hyper- and abnormally phosphorylated Tau species accumulate within the somato-dendritic area (Schindowski et al., 2006).
# For animal treatment, animals were randomly distributed and the compound of Formula I was given in the drinking water at final concentration of 0.5 or 1 mg/kg. Drinking bottles were changed once per week, volume consumption was measured along the treatment period. Food consumption and body weight were assessed. In wild-type animals the pilot study of drug treatment was performed for one month to establish the innocuousness of the treatment with the compound of Formula I. This was based on the physiological, social and behavioural assessments. Thy-Tau22 males were treated for 4 months starting at 3 month old. All protocols were approved by the local ethics committee (n^∘342012, CEEA).
# After behavioral assessment, blood was collected in 1.5 mL polypropylene tubes (Eppendorf, France), mice were sacrificed by cervical dislocation to avoid any modifications instrumental to anesthesia (Lefreche et al. 2012). Hippocampi and cortices were dissected and snap frozen in 1.5 mL tubes (Eppendorf). Tissue was homogenized in Tris-HCl buffer (10 mM pH 7.4) containing 320 mM sucrose, protease inhibitors (Complete mini EDTA-free, Roche) sonicated and spun at 12,000×g for 10 min at 4° C. The supernatant was recovered, protein concentration was achieved using the BCA Protein quantification assay kit (Pierce) according to the manufacturer instruction. The supernatant was further processed for biochemical analyses or kept at −80° C. For 1D or 2D gels, the same lysis buffer was used. Thus, equal amount protein in Tris buffer were added with a solution containing 7M urea, 2M thiourée with 2% SDS and sonicated at 60 Hz 30 pulses.
# For the western-blot analysis of Tau proteins, SDS-PAGE was performed according to the manufacturer's instructions using Bis-Tris 4-12% gradient acrylamide gel (NuPage® Bis-Tris PreCast 12 wells, Life Technologies). The apparent molecular weights were calibrated using the molecular weight markers (Novex and Magic Marks, Life Technologies). Electrophoresis was performed under a continuous tension of 100V/per gel for 1 h. Proteins were reversibly stained with Ponceau Red to check the quality of the efficacy of protein transfer. For western-blotting, the membranes were blocked in 25 mM Tris-HCl pH 8.0, 150 mM NaCl, 0.1% Tween-20 (v/v) (TBS-T) and 5% (w/v) of skimmed milk (TBS-M) for 30 min and they were incubated overnight at 4° C. the primary antibody. The nitrocellulose membrane is rinsed three times by gentle shaking in TBS-T during 10 min each. […]
# Brain proteins (of hippocampus) from untreated and Compound I⋅HCl treated thy-tau22 animals were resolved by 1D SDS-PAGE and Tau proteins were labeled with Pan-Tau antibodies (N-ter, C-ter). Catabolites detected with these antibodies are indicated as f-Nter and f-Cter. […]
# Thy-Tau22 mice = test: Immunohistochemical measurement of tau pathology (NFT burden) in hippocampal CA1; assay type: in vivo, mouse; conditions: Thy-Tau22, 0.5 mg/kg vs untreated, FIG. 5
# Excerpt: Wild-type C57BL/6J animals of 3 months were purchased at Charles Rivers Laboratories (France) and were allow to acclimate in the animal facility for at least one week before any treatment. Thy-Tau22 transgenic colonies (C57BL/6J genetic background) were obtained by crossing heterozygous Thy-Tau22 males with C57BL/6 WT females. […] In this model, a progressive development of NFT is observed in the hippocampus and amygdala, which parallels behavioral impairments (Schindowski et al., 2006). Furthermorever, in the hippocampus, hyper- and abnormally phosphorylated Tau species accumulate within the somato-dendritic area (Schindowski et al., 2006). For animal treatment, animals were randomly distributed and the compound of Formula I was given in the drinking water at final concentration of 0.5 or 1 mg/kg. Drinking bottles were changed once per week, volume consumption was measured along the treatment period. Food consumption and body weight were assessed. […] Quantification of labeled neurons was achieved using the NIH-Image J software and expressed in arbitrary units (A.U). The burden of NFT in the hippocampal CA1 was investigated by immunohistochemistry and quantification. […]
# [2] = ratio phospho-epitope/total hTau
smiles,measurement,setting,value
"CC(C)CN(CCCN1CCN(CCCNc2c3c(nc4ccccc24)CCCC3)CC1)CC(C)C.Cl [Compound I⋅HCl, N-[3-(4-{3-[Bis(2-methylpropyl)amino]propyl}piperazin-1-yl)propyl]-1,2,3,4-tetrahydroacridin-9-amine hydrochloride]",Tau C-terminal catabolites products at 43 kDa,[1],significantly increased
same,Tau N-terminal catabolites,[1],significantly decreased
same,"Tau phosphorylation at other phospho-sites (pSer199, pSer262, pSer422, Tau-1)",[1],not significantly modified
same,Tau phosphorylation at phospho-site 396,[1]; [2],significant reduction
same,Tau phosphorylation at phospho-site 404,[1]; [2],significant reduction
same,AT8 immunostaining,Thy-Tau22 mice,no significant differences
same,average surface of staining after AT100 staining,Thy-Tau22 mice,significantly reduced
